Where two headings read alike, the source gives them in different places.
System: Pyricularia oryzae
Type: in vivo
Details: root application as in Use Example 2, untreated control 80%

## CC(NC(=O)C(C#N)C1CC1)c1ccc(Cl)cc1 (centres unmarked) [I.1, N-(4′-Chlorophenyl)ethyl-1-cyclopropyl-1-cyanoacetamide]
10 ppm
  % infestation of leaves after application of an aqueous active compound preparation containing . . . ppm: 20%
50 ppm
  % infestation of leaves after application of an aqueous active compound preparation containing . . . ppm: 5%

Source: patent US6410486B1 (priority 1997, dated 2002)
